From the PolyMetriX glass transition set
± gives the standard deviation of the reports.

SMILES	glass transition temperature [°C]
*CC(*)c1cc(Br)ccc1OCCCC (repeat unit)	47.00
*c1ccc(Oc2ccc(C(=O)c3ccc(Oc4ccc(-c5nc(-c6ccccn6)nnc5*)cc4)cc3)cc2)cc1 (repeat unit)	223.00
*Oc1ccc(CC(NC(=O)CCc2ccc(OC(=O)CCCCCCC(*)=O)cc2)C(=O)OCCCC)cc1 (repeat unit)	37.00
*c1ccc2c(c1)C(=O)N(c1ccc(Sc3ccc(Sc4ccc(Sc5ccc(N6C(=O)c7ccc(C(*)(C(F)(F)F)C(F)(F)F)cc7C6=O)cc5)cc4)cc3)cc1)C2=O (repeat unit)	233.00
*CC(*)c1ccc(C(=O)C(F)(F)F)cc1 (repeat unit)	95.00
*C1CCCCC1S(*)(=O)=O (repeat unit)	77.00
*Oc1ccc(-c2ccc(/N=N/c3ccc(C(*)=O)cc3)cc2)cc1 (repeat unit)	147.00
*CCCCCCOC(=O)OCCCOC(=O)OCCCCCCOc1ccc(Oc2ccc(O*)cc2)cc1 (repeat unit)	-6.00
*Nc1ccc(NC(=O)c2cc(C(*)=O)c(C(=O)O)cc2C(=O)O)cc1 (repeat unit)	283.40
*C(=O)c1cc2c(cc1Cl)C(=O)N(c1cc(C(=O)OC)cc(N3C(=O)c4cc(*)c(Cl)cc4C3=O)c1)C2=O (repeat unit)	321.00
*Oc1ccc(CC(NC(=O)CCc2ccc(OC(=O)CCCCC(*)=O)cc2)C(=O)OCCCCCCCC)cc1 (repeat unit)	28.00
*C/C=C/C[Si](*)(c1ccccc1)c1ccccc1 (repeat unit)	34.90
*C(=O)c1ccc2c(c1)C(=O)N(c1ccc(N3C(=O)c4ccc(*)cc4C3=O)c(S(=O)(=O)[O][Na])c1)C2=O (repeat unit)	214.00
*C(=O)Nc1ccc(Oc2ccc(C(=O)c3ccc(Oc4ccc(NC(=O)c5ccc(*)nc5)cc4)cc3)cc2)cc1 (repeat unit)	170.00
*C(=O)c1cc(C(=O)c2ccc3c(c2)C(=O)N(c2ccc(Oc4ccc(S(=O)(=O)c5ccc(Oc6ccc(N7C(=O)c8ccc(*)cc8C7=O)cc6)cc5)cc4)cc2)C3=O)cc(C(C)(C)C)c1 (repeat unit)	254.50
*CC(*)C(=O)OC(C)CC (repeat unit) [Poly(sec-butyl acrylate)]	-20 ± 1.8
*CC1CCC(COC(C)OC(=O)c2cccc(C(=O)OC(C)O*)c2)CC1 (repeat unit)	30.00
*CC(*)C(=O)NC(C)C (repeat unit) [Poly(N-isopropyl acrylamide)]	85.2 ± 56
*c1ccc(Oc2cccc(Oc3ccc(N4C(=O)c5ccc(Oc6ccc(Oc7ccc(Oc8ccc9c(c8)C(=O)N(*)C9=O)cc7)cc6)cc5C4=O)cc3)c2)cc1 (repeat unit)	184.00
*CC(*)(C)C(=O)OCC(F)(F)C(F)F (repeat unit) [Poly(2,2,3,3-tetrafluoropropyl methacrylate)]	75.42 ± 6.5
*CC(*)CO (repeat unit)	36.00
*CC(*)C(=O)OCCO (repeat unit)	20.70
*c1cccc(P(=O)(c2cccc(N3C(=O)c4ccc(Oc5ccc6c(c5)C(=O)N(*)C6=O)cc4C3=O)c2)c2cc(C(F)(F)F)cc(C(F)(F)F)c2)c1 (repeat unit)	228.00
*c1ccc2c(c1)C(=O)N(c1ccc(S(=O)(=O)c3ccc(S(=O)(=O)c4ccc(S(=O)(=O)c5ccc(N6C(=O)c7ccc(C(*)(C(F)(F)F)C(F)(F)F)cc7C6=O)cc5)cc4)cc3)cc1)C2=O (repeat unit)	327.00
*Oc1ccc(N(c2ccc(OCCCCCC)cc2)c2ccc(-c3ccc(N(c4ccc(*)cc4)c4ccc(OCCCCCC)cc4)cc3)cc2)cc1 (repeat unit)	105.00
*O[Si](*)(C)CCCOCCOCCOC (repeat unit)	-90.10
*Oc1c(OC)cc(*)cc1OC (repeat unit)	174.10
*Oc1cc(C(C)(C)C)c(Oc2ccc(C(=O)c3ccc(*)cc3)cc2)cc1C(C)(C)C (repeat unit)	206.00
*CC(*)OC(=O)c1cccc([Si](C)(C)C)c1 (repeat unit)	80.00
*CCOC(=O)c1cc(C(=O)O*)cc(C(C)(C)C)c1 (repeat unit)	94.00

Second part, the compound after the results:

glass transition temperature [°C]	SMILES
124.30	*c1nnc(-c2sc(-c3nnc(-c4cc(OCCCCCCCC)c(*)cc4OCCCCCCCC)o3)cc2CCCCCCCC)o1 (repeat unit)
42.50	*CCCCCCCCCCCCOc1ccc(N(c2ccccc2)c2ccc(-c3ccc(N(c4ccccc4)c4ccc(O*)cc4)cc3)cc2)cc1 (repeat unit)
260.00	*c1ccc(N2C(=O)c3ccc(C(=O)c4ccc5c(c4)C(=O)N(c4ccc(-c6nc7cc(-c8ccc9nc(-c%10ccccc%10)c(*)nc9c8)ccc7nc6-c6ccccc6)cc4)C5=O)cc3C2=O)cc1 (repeat unit)
370.00	*Nc1ccc(C2(c3ccc(NC(=O)c4cc(NC(=O)C56CC7CC(CC(C7)C5)C6)cc(C(*)=O)c4)cc3)c3ccccc3-c3ccccc32)cc1 (repeat unit)
80.00	*C(=O)NCCCCCCNC(=O)c1ccc(*)nc1 (repeat unit)
287.00	*Oc1ccc(NC(=O)c2ccc(S(=O)(=O)c3ccc(C(=O)Nc4ccc(Oc5ccc(C6(c7ccc(*)cc7)CC7CCC6C7)cc5)cc4)cc3)cc2)cc1 (repeat unit)
292.00 ± 28	*c1ccc(Oc2ccc(Oc3ccc(-n4c(=O)c5cc6c(=O)n(*)c(=O)c6cc5c4=O)cc3)cc2)cc1 (repeat unit)
78.00	*Oc1ccc(CC(NC(=O)CCc2ccc(OC(=O)CCC(*)=O)cc2)C(=O)OCC)cc1 (repeat unit)
250.00	*c1cc(*)cc(-c2nc3ccccc3o2)c1 (repeat unit)
212.00	*CC(c1ccccc1)C1C(=O)OC(=O)C1* (repeat unit)
142.00	*Oc1ccc(C(C)(CC)c2ccc(OC(*)=O)c(Cl)c2)cc1Cl (repeat unit)
418.00	*c1c(C)cc(C)c(N2C(=O)c3ccc(S(=O)(=O)c4ccc5c(c4)C(=O)N(*)C5=O)cc3C2=O)c1C (repeat unit)
167.00	*Oc1cccc(Oc2ccc(S(=O)(=O)c3ccc(Oc4ccc(C(=O)c5ccc(*)cc5)cc4)cc3)cc2)c1 (repeat unit)
232.30	*c1ccc(Oc2ccc(Oc3ccc(N4C(=O)c5ccc(Oc6ccc7c(c6)C(=O)N(*)C7=O)cc5C4=O)cc3C(F)(F)F)cc2)cc1 (repeat unit)
-69.00	*O[Si](*)(C)CCCCCCCCCCC(=O)OCCC(F)(F)C(F)(F)C(F)(F)C(F)(F)C(F)(F)C(F)(F)F (repeat unit)
265.00	*c1ccc(C(C)(C)c2ccc(N3C(=O)c4ccc(Oc5ccc6c(c5)C(=O)N(*)C6=O)cc4C3=O)cc2)cc1 (repeat unit)
3.00	*OC(C)CCOC(=O)C(CCCCCCOc1ccc(/N=C/c2ccc([N+](=O)[O-])cc2)cc1)C(*)=O (repeat unit)
